Patent EP0322643A1, “Medicines containing as a mixture interferon and 1-desoxy-piperidinoses, process for their manufacture and their use” (BAYER AG, priority 1987, dated 1989)

Tested on: Visna-Virus
Test: Visna virus test: inhibition of virus-induced cytopathic effect in infected sheep fibroblast cell cultures
Assay type: cell-based
Parameters: key to Antivirale Wirkung in der Zellkultur*: 3 = kompletter antiviraler Schutzeffekt; 100% Schutz der Zellen vor der Infektion; 2 = 50% Schutzeffekt der infizierten Zellkultur; 1- 10 - 20% Schutzeffekt der infizierten Zellkultur; 0 = komplette Zerstörung der infizierten Zellkultur
Details: for Antivirale Wirkung in der Zellkultur*: compound alone, Schafszellen
Description: In Zellkulturen, die mit Visna-Virus infiziert sind, treten 5 bis 10 Tage nach der Infektion ausgeprägte virusinduzierte, zytopathische Effekte auf. Durch Behandlung der infizierten Zellkulturen mit den erfindungsgemäßen Kombinationen von Verbindungen der allgemeinen Formel (I) und Interferon konnte das Auftreten dieser zytopathischen Effekte verhindert werden.
Der Visna-Virus-Test wurde nach der Methode von 0. Narayan et al., Journal of Infectious Diseases 135, 5, 1977, 800 - 806 durchgeführt. Dazu wurden die erfindungsgemäßen Kombinationen von Verbindungen der allgemeinen Formel (I) und Interferon im Kulturmedium zu nicht zytotoxischen Konzentrationen verdünnt, und zwar in 96er Microtiterplatten. Anschließend wurden zu jeder Verdünnung der Wirkstoffe Schafsfibroblastenzellen (5 x 10⁴ Zellen pro Napf) in Kulturmedium zugeführt.
Jedes Näpfchen erhielt dann 50 µl einer Visna-Viruslösung mit einem Titer von ca. 2,5 x 10⁴ TCID₅₀ (TCID = tissue culture infectious dosis). Diese Virusdosis entspricht einer MOI (Multiplizität der Infektion) von ca. 0,05.
Unter diesen Infektionsbedingungen resultierte zwischen Tag 5 und Tag 10 in einer Infektionskontrolle ohne Substanz ein virusinduzierter, zytopathischer Effekt. Die infizierten und behandelten Zellen und die Kontrollzellen wurden 7 Tage bei 37°C, 5% CO₂ inkubiert.
Bei Auftreten des virusinduzierten zytopathogenen Effektes in der unbehandelten Viruskontrolle wurden die Kulturen mit Formalin fixiert und anschließend mit einer Giemsa-Lösung gefärbt. Die inhibitorische Konzentration (IC₅₀) wurde mikroskopisch als die Konzentration ermittelt, bei der der zytopathische Effekt um 50% gehemmt wurde, im Vergleich zur unbehandelten Viruskontrolle, die 100% Zellzerstörung aufwies.

CC(C)c1ccc(NC(=O)CCN2C[C@@H](O)[C@@H](O)[C@H](O)[C@H]2CO)cc1 [3-(1,5-Didesoxy-1,5-imino-D-mannit-N-yl)-propionsäure-4-isopropyl-anilid]
Reduktion der Konzentration der Einzelkomponenten um den Faktor (by combining both active substances, versus the single component alone): 30 | Antivirale Wirkung in der Zellkultur* (Konzentration der Testsubstanz 0,03 mg/ml): 2 (2 = 50% Schutzeffekt der infizierten Zellkultur) | Antivirale Wirkung in der Zellkultur* (Konzentration der Testsubstanz 0,5 mg/ml): 3 (3 = kompletter antiviraler Schutzeffekt; 100% Schutz der Zellen vor der Infektion) | Antivirale Wirkung in der Zellkultur* (Konzentration der Testsubstanz 0,06 mg/ml): 3 (3 = kompletter antiviraler Schutzeffekt; 100% Schutz der Zellen vor der Infektion) | Antivirale Wirkung in der Zellkultur* (Konzentration der Testsubstanz 0,25 mg/ml): 3 (3 = kompletter antiviraler Schutzeffekt; 100% Schutz der Zellen vor der Infektion) | Antivirale Wirkung in der Zellkultur* (Konzentration der Testsubstanz 0,001 mg/ml): 0 | Antivirale Wirkung in der Zellkultur* (Konzentration der Testsubstanz 1 mg/ml): 3 (3 = kompletter antiviraler Schutzeffekt; 100% Schutz der Zellen vor der Infektion) | Antivirale Wirkung in der Zellkultur* (Konzentration der Testsubstanz 0,003 mg/ml): 0 | Antivirale Wirkung in der Zellkultur* (Konzentration der Testsubstanz 0,007 mg/ml): 0 | Antivirale Wirkung in der Zellkultur* (Konzentration der Testsubstanz 0,015 mg/ml): 1 (1- 10 - 20% Schutzeffekt der infizierten Zellkultur) | Antivirale Wirkung in der Zellkultur* (Konzentration der Testsubstanz 0,125 mg/ml): 3 (3 = kompletter antiviraler Schutzeffekt; 100% Schutz der Zellen vor der Infektion)
